# Laboratory results taken from PubChem BioAssay AID1963974 (Molecular Pharmacology Branch, DTP, NCI, 2024).
# System: 648629-189-R-J1-PDC spheroids with HUVEC/MSC, viability
# Assay: Anticancer human tumor 648629-189-R-J1-PDC patient-derived bladder carcinoma cell line growth inhibition [PI3K]
# Conditions: for IC50: curve of first compound; for viability, T/C: stronger effect = lower value
# In short: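 Agents were dosed from a top concentration near clinical Cmax (otherwise 10 microM) in half-log decrements, alone or combined with PI3K inhibitors. The spheroids contain tumor cells plus endothelial (HUVEC) and MSC stroma; viability is measured.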
# [1] = second compound 0.0316 µM, first compound 0.0316 µM
# [2] = second compound 0.0316 µM, first compound 0.1 µM
# [3] = second compound 0.0316 µM, first compound 0.316 µM
# [4] = second compound 0.0316 µM, first compound 1 µM
# [5] = second compound 0.0316 µM, first compound 3.16 µM
# [6] = second compound 0.0316 µM, first compound 10 µM
# [7] = second compound 0.1 µM, first compound 0.0316 µM
# [8] = second compound 0.1 µM, first compound 0.1 µM
# [9] = second compound 0.1 µM, first compound 0.316 µM
# [10] = second compound 0.1 µM, first compound 1 µM
# [11] = second compound 0.1 µM, first compound 3.16 µM
# [12] = second compound 0.1 µM, first compound 10 µM
# [13] = second compound 0.316 µM, first compound 0.0316 µM
# [14] = second compound 0.316 µM, first compound 0.1 µM
# [15] = second compound 0.316 µM, first compound 0.316 µM
# [16] = second compound 0.316 µM, first compound 1 µM
# [17] = second compound 0.316 µM, first compound 3.16 µM
# [18] = second compound 0.316 µM, first compound 10 µM
# [19] = second compound 1 µM, first compound 0.0316 µM
# [20] = second compound 1 µM, first compound 0.1 µM
# [21] = second compound 1 µM, first compound 0.316 µM
# [22] = second compound 1 µM, first compound 1 µM
# [23] = second compound 1 µM, first compound 3.16 µM
# [24] = second compound 1 µM, first compound 10 µM
# [25] = second compound 3.16 µM, first compound 0.0316 µM
# [26] = second compound 3.16 µM, first compound 0.1 µM
# [27] = second compound 3.16 µM, first compound 0.316 µM
# [28] = second compound 3.16 µM, first compound 1 µM
# [29] = second compound 3.16 µM, first compound 3.16 µM
# [30] = second compound 3.16 µM, first compound 10 µM
# [31] = second compound 10 µM, first compound 0.0316 µM
# [32] = second compound 10 µM, first compound 0.1 µM
# [33] = second compound 10 µM, first compound 0.316 µM
# [34] = second compound 10 µM, first compound 1 µM
# [35] = second compound 10 µM, first compound 3.16 µM
# [36] = second compound 10 µM, first compound 10 µM
# 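Note: spheroids exposed to agents for seven days before reading.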
# 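Throughout, for viability, T/C: percent of vehicle control luminescence where 100% = DMSO treated spheroids.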
compound,measurement,setting,value
C[C@@H](NC(=O)c1ncnc(N)c1Cl)c1ncc(C(=O)Nc2cc(C(F)(F)F)c(Cl)cn2)s1 + Cc1nc(NC(=O)N2CCCC2C(N)=O)sc1-c1ccnc(C(C)(C)C(F)(F)F)c1,IC50,second compound 0.0316 µM,> 10000 nM
same,IC50,second compound 0.1 µM,> 10000 nM
same,IC50,second compound 0.316 µM,> 10000 nM
same,IC50,second compound 1 µM,> 10000 nM
same,IC50,second compound 3.16 µM,> 10000 nM
same,IC50,second compound 10 µM,< 31.6 nM
same,"viability, T/C",[1],101%
same,"viability, T/C",[2],93.8%
same,"viability, T/C",[3],98.8%
same,"viability, T/C",[4],116%
same,"viability, T/C",[5],107%
same,"viability, T/C",[6],106%
same,"viability, T/C",[7],107%
same,"viability, T/C",[8],92.4%
same,"viability, T/C",[9],95.4%
same,"viability, T/C",[10],108%
same,"viability, T/C",[11],120%
same,"viability, T/C",[12],118%
same,"viability, T/C",[13],81.2%
same,"viability, T/C",[14],101%
same,"viability, T/C",[15],83.4%
same,"viability, T/C",[16],93%
same,"viability, T/C",[17],90.9%
same,"viability, T/C",[18],94.5%
same,"viability, T/C",[19],74%
same,"viability, T/C",[20],73.2%
same,"viability, T/C",[21],78%
same,"viability, T/C",[22],77.9%
same,"viability, T/C",[23],88.7%
same,"viability, T/C",[24],82.6%
same,"viability, T/C",[25],53.3%
same,"viability, T/C",[26],56.6%
same,"viability, T/C",[27],59%
same,"viability, T/C",[28],55%
same,"viability, T/C",[29],66%
same,"viability, T/C",[30],54.7%
same,"viability, T/C",[31],40.2%
same,"viability, T/C",[32],35.4%
same,"viability, T/C",[33],39.2%
same,"viability, T/C",[34],36%
same,"viability, T/C",[35],36.6%
same,"viability, T/C",[36],42.7%
Cn1ncc(Cl)c1-c1cc(C(=O)NC(CN)Cc2cccc(F)c2)sc1Cl (stereo unspecified) + Cc1nc(NC(=O)N2CCCC2C(N)=O)sc1-c1ccnc(C(C)(C)C(F)(F)F)c1,IC50,second compound 0.0316 µM,510 nM
same,IC50,second compound 0.1 µM,405 nM
same,IC50,second compound 0.316 µM,312 nM
same,IC50,second compound 1 µM,218 nM
same,IC50,second compound 3.16 µM,75.9 nM
same,IC50,second compound 10 µM,< 31.6 nM
same,"viability, T/C",[1],105%
same,"viability, T/C",[2],97%
same,"viability, T/C",[3],55.6%
same,"viability, T/C",[4],34.7%
same,"viability, T/C",[5],17.9%
same,"viability, T/C",[6],2.36%
same,"viability, T/C",[7],90.8%
same,"viability, T/C",[8],76.8%
same,"viability, T/C",[9],56.9%
same,"viability, T/C",[10],27.6%
same,"viability, T/C",[11],17.5%
same,"viability, T/C",[12],1.87%
same,"viability, T/C",[13],89.6%
same,"viability, T/C",[14],73.8%
same,"viability, T/C",[15],48.2%
same,"viability, T/C",[16],28%
same,"viability, T/C",[17],15.1%
same,"viability, T/C",[18],1.73%
same,"viability, T/C",[19],72.8%
same,"viability, T/C",[20],66.6%
same,"viability, T/C",[21],41%
same,"viability, T/C",[22],23.3%
same,"viability, T/C",[23],13.6%
same,"viability, T/C",[24],1.42%
same,"viability, T/C",[25],55.2%
same,"viability, T/C",[26],50.3%
same,"viability, T/C",[27],34.4%
same,"viability, T/C",[28],20.5%
same,"viability, T/C",[29],12.2%
same,"viability, T/C",[30],1.25%
same,"viability, T/C",[31],36.9%
same,"viability, T/C",[32],31.7%
same,"viability, T/C",[33],20.4%
same,"viability, T/C",[34],13.5%
same,"viability, T/C",[35],7.71%
same,"viability, T/C",[36],0.35%
Cn1ncnc1[C@H]1c2n[nH]c(=O)c3cc(F)cc(c23)N[C@@H]1c1ccc(F)cc1 + Cc1nc(NC(=O)N2CCCC2C(N)=O)sc1-c1ccnc(C(C)(C)C(F)(F)F)c1,IC50,second compound 0.0316 µM,> 100 nM
same,IC50,second compound 0.1 µM,> 100 nM
same,IC50,second compound 0.316 µM,> 100 nM
same,IC50,second compound 1 µM,89.4 nM
same,IC50,second compound 3.16 µM,15.9 nM
same,IC50,second compound 10 µM,< 0.316 nM
same,"viability, T/C","second compound 0.0316 µM, first compound 0.000316 µM",117%
same,"viability, T/C","second compound 0.0316 µM, first compound 0.001 µM",101%
same,"viability, T/C","second compound 0.0316 µM, first compound 0.00316 µM",91.2%
same,"viability, T/C","second compound 0.0316 µM, first compound 0.01 µM",82.1%
same,"viability, T/C",[1],83.4%
same,"viability, T/C",[2],64.7%
same,"viability, T/C","second compound 0.1 µM, first compound 0.000316 µM",115%
same,"viability, T/C","second compound 0.1 µM, first compound 0.001 µM",96.9%
same,"viability, T/C","second compound 0.1 µM, first compound 0.00316 µM",93.5%
same,"viability, T/C","second compound 0.1 µM, first compound 0.01 µM",77.8%
same,"viability, T/C",[7],80.4%
same,"viability, T/C",[8],58.6%
same,"viability, T/C","second compound 0.316 µM, first compound 0.000316 µM",85.8%
same,"viability, T/C","second compound 0.316 µM, first compound 0.001 µM",94.5%
same,"viability, T/C","second compound 0.316 µM, first compound 0.00316 µM",90.8%
same,"viability, T/C","second compound 0.316 µM, first compound 0.01 µM",78.3%
same,"viability, T/C",[13],68.2%
same,"viability, T/C",[14],52.7%
same,"viability, T/C","second compound 1 µM, first compound 0.000316 µM",73.8%
same,"viability, T/C","second compound 1 µM, first compound 0.001 µM",74.8%
same,"viability, T/C","second compound 1 µM, first compound 0.00316 µM",70.6%
same,"viability, T/C","second compound 1 µM, first compound 0.01 µM",74.9%
same,"viability, T/C",[19],60.8%
same,"viability, T/C",[20],48.8%
same,"viability, T/C","second compound 3.16 µM, first compound 0.000316 µM",64.4%
same,"viability, T/C","second compound 3.16 µM, first compound 0.001 µM",57.6%
same,"viability, T/C","second compound 3.16 µM, first compound 0.00316 µM",58.4%
same,"viability, T/C","second compound 3.16 µM, first compound 0.01 µM",48.7%
same,"viability, T/C",[25],49.7%
same,"viability, T/C",[26],43.5%
same,"viability, T/C","second compound 10 µM, first compound 0.000316 µM",40.6%
same,"viability, T/C","second compound 10 µM, first compound 0.001 µM",36.1%
same,"viability, T/C","second compound 10 µM, first compound 0.00316 µM",39.7%
same,"viability, T/C","second compound 10 µM, first compound 0.01 µM",35%
same,"viability, T/C",[31],29.7%
same,"viability, T/C",[32],28.5%
